Experimental data published in BigSolDB 2.1.

Cc1ccc[n+](CCCC[n+]2cccc(C)c2)c1.F[P-](F)(F)(F)(F)F.F[P-](F)(F)(F)(F)F
solubility (mole fraction) (in 2-butanone, 288.15 K): 0.00289 | solubility (mole fraction) (in 2-butanone, 293.15 K): 0.00328 | solubility (mole fraction) (in 2-butanone, 298.15 K): 0.00379 | solubility (mole fraction) (in 2-butanone, 303.15 K): 0.00439 | solubility (mole fraction) (in 2-butanone, 308.15 K): 0.00496 | solubility (mole fraction) (in 2-butanone, 313.15 K): 0.00556 | solubility (mole fraction) (in 2-butanone, 318.15 K): 0.00623 | solubility (mole fraction) (in 2-butanone, 323.15 K): 0.00706 | solubility (mole fraction) (in 2-butanone, 328.15 K): 0.00771 | solubility (mole fraction) (in 2-butanone, 333.15 K): 0.00856 | solubility (mole fraction) (in acetophenone, 298.15 K): 0.000748 | solubility (mole fraction) (in acetophenone, 303.15 K): 0.00103 | solubility (mole fraction) (in acetophenone, 308.15 K): 0.00138 | solubility (mole fraction) (in acetophenone, 313.15 K): 0.00183 | solubility (mole fraction) (in acetophenone, 318.15 K): 0.0024 | solubility (mole fraction) (in acetophenone, 323.15 K): 0.00311 | solubility (mole fraction) (in acetophenone, 328.15 K): 0.00428 | solubility (mole fraction) (in acetophenone, 333.15 K): 0.00556 | solubility (mole fraction) (in acetylacetone, 288.15 K): 0.00119 | solubility (mole fraction) (in acetylacetone, 293.15 K): 0.00157 | solubility (mole fraction) (in acetylacetone, 298.15 K): 0.00214 | solubility (mole fraction) (in acetylacetone, 303.15 K): 0.00282 | solubility (mole fraction) (in acetylacetone, 308.15 K): 0.00368 | solubility (mole fraction) (in acetylacetone, 313.15 K): 0.00462 | solubility (mole fraction) (in acetylacetone, 318.15 K): 0.00598 | solubility (mole fraction) (in acetylacetone, 323.15 K): 0.00807 | solubility (mole fraction) (in acetylacetone, 328.15 K): 0.0101 | solubility (mole fraction) (in acetylacetone, 333.15 K): 0.0136 | solubility (mole fraction) (in cyclohexanone, 288.15 K): 0.000205 | solubility (mole fraction) (in cyclohexanone, 293.15 K): 0.000333 | solubility (mole fraction) (in cyclohexanone, 298.15 K): 0.00051 | solubility (mole fraction) (in cyclohexanone, 303.15 K): 0.000746 | solubility (mole fraction) (in cyclohexanone, 308.15 K): 0.000967 | solubility (mole fraction) (in cyclohexanone, 313.15 K): 0.00121 | solubility (mole fraction) (in cyclohexanone, 318.15 K): 0.00146 | solubility (mole fraction) (in cyclohexanone, 323.15 K): 0.00164 | solubility (mole fraction) (in cyclohexanone, 328.15 K): 0.0018 | solubility (mole fraction) (in cyclohexanone, 333.15 K): 0.00186 | solubility (mole fraction) (in water, 288.15 K): 2e-06 | solubility (mole fraction) (in water, 293.15 K): 3e-06 | solubility (mole fraction) (in water, 298.15 K): 5e-06 | solubility (mole fraction) (in water, 303.15 K): 8e-06 | solubility (mole fraction) (in water, 308.15 K): 1.4e-05 | solubility (mole fraction) (in water, 313.15 K): 2.4e-05 | solubility (mole fraction) (in water, 318.15 K): 3.9e-05 | solubility (mole fraction) (in water, 323.15 K): 6.3e-05 | solubility (mole fraction) (in water, 328.15 K): 9.8e-05 | solubility (mole fraction) (in water, 333.15 K): 0.000157
